The results in this text go back to patent publication US5631247A, “Compounds and compositions with nitrogen-containing non-basic side chains” (Eli Lilly and Company, priority 1996, dated 1997).

What all share (type): in vivo, female Sprague Dawley rats
For one experiment, the system named is eosinophil peroxidase. Description: Uterine eosinophil peroxidase (EPO) assay in ovariectomized rats (four day dosing). The arrangement: Uterine EPO (Vmax): unit not given here. Particulars: oral, OVX rats. How it is done: (§1) In the examples illustrating the methods, a post-menopausal model was used in which effects of different treatments upon various biological parameters were determined, including serum cholesterol concentration, uterine weight, eosinophil peroxidase activity, MCF-7 cell proliferation, and bone density.
(§2) Animals were dosed daily for 4 days. […] A blood sample was collected by cardiac puncture.
(§3) The data presented in Table 1 reflect the response of 5 to 6 rats per treatment.

The next experiment has as its system serum cholesterol. Description: Serum cholesterol in ovariectomized rats (post-menopausal rat model, four day dosing). To be noted: OVX rats, oral, 4 days; EE2 at 0.1 mg/Kg/day. How it is done:
as §1, §2
Blood samples were allowed to clot at room temperature for 2 hours, and serum was obtained following centrifugation for 10 minutes at 3000 rpm. Serum cholesterol was determined using a Boshringer Mannheim Diagnostics high performance cholesterol assay. Briefly the cholesterol was oxidized to cholest-4-en-3-one and hydrogen peroxide. The hydrogen peroxide was then reacted with phenol and 4-aminophenazone in the presence of peroxidase to produce a p-quinone imine dye, which was read spectrophotemetrically at 500 nm. Cholesterol concentration was then calculated against a standard curve. The entire assay was automated using a Biomek Automated Workstation.
(§4) Data presented in Table 1 below show comparative results among control ovariectomized rats, rats treated with EE2, and rats treated with certain compounds of the present invention. […] This uterine response to estrogen is well recognized in the art.
as §3

Another experiment relates to tibia. Description: Bone density assay (35 day dosing, tibia, single photon absorptiometry). Particulars: OVX rats, oral in 20% hydroxypropyl β-cyclodextrin, daily for 35 days. How it is done:
Following the General Preparation procedure described above, the rats were treated daily for 35 days (6 rats per treatment group) and sacrificed by decapitation on the 36th day. The 35 day time period was sufficient to allow maximal effect on bone density, measured as described herein. At the time of sacrifice, the uteri were removed, dissected free of extraneous tissue, and the fluid contents were expelled before determination of wet weight in order to confirm estrogen deficiency associated with complete ovariectomy. […] The uteri were then placed in 10% neutral buffered formalin to allow for subsequent histological analysis. The right tibias were excised and scanned at the distal metaphysis 1 mm from the patellar groove with single photon absorptiometry. Results of the densitometer measurements represent a calculation of bone density as a function of the bone mineral content and bone width. In accordance with the procedures outlined above, compounds of the present invention and EE2 in 20% hydroxypropyl β-cyclodextrin were orally administered to test animals.

The test system of the next experiment is uterus. Description: Wet uterine weight in ovariectomized rats (four day dosing). The procedure: as §1, §2, §4, §3

As to `C#C[C@]1(O)CC[C@H]2[C@@H]3CCc4cc(O)ccc4[C@H]3CC[C@@]21C` [ethynyl estradiol, 17α-Ethynyl estradiol, reference compound], in the experiment with eosinophil peroxidase (0.1 mg/kg, daily for 4 days), the “Uterine EPO (Vmax)” value came to 120.0. The “eosinophil infiltration into the uterus (in words)” value in the experiment on eosinophil peroxidase (4 days, by eosinophil peroxidase activity) is “caused a substantial, expected increase in eosinophil infiltration”. In addition, the “effect on serum cholesterol (in words)” value in the experiment with serum cholesterol was “caused a decrease in serum cholesterol”. Further, the “effect on bone loss / tibia density (in words)” value in the experiment with tibia is recorded as “prevented this loss”. Besides, the “effect on uterine weight (in words)” value with uterus (OVX rats, oral, 4 days, EE2 at 0.1 mg/Kg/day) was “substantially greater than the uterine weight of ovariectomized test animals”. Also, the change in vivo at 0.1 mg/kg with uterus (Rattus norvegicus, po, 96 h, 0.1 mg/kg, daily for 4 days, increase vs OVX control, read-out: Uterine Weight (% inc. OVX)) is 235%.
